In patent US8709764B2, “Enzymatic demethylation of flavonoids” (Universiteit Gent, priority 2005, dated 2014):
“And” between values parts separate entries of the source, which are not always exact repeats. Identical values can stand only once.

Columns and labels:
human fecal cultures = test: Incubation of X or IX with human fecal cultures A-D for 8 days, conversion products detected by HPLC; type: in vitro ADME; details: fecal cultures A, B and D, 25 mg/l, 8 days
Procedure: Fecal slurries of 20% (w/v) fresh fecal samples were prepared by homogenizing the feces with phosphate buffered saline (0.1 M, pH 7) containing 1 g/l sodiumthioglycolate as reducing agent. The particulate material was removed by centrifugation (1 min, 500×g). The supernatant is hereafter called “the culture”.
(§1) The capacity of the cultures obtained from fecal samples A, B, C and D (further referred as cultures A-D) to degrade or transform the hop prenylflavonoid IX was tested by incubating the fecal cultures (10% (v/v)) in Brain Heart Infusion broth (with 0.5 g/l cystein-HCl) with 25 mg/l of isoxanthohumol for a period of 8 days under anaerobic conditions. Extracts of the incubations at days 0 and 8 were assayed for bioactive transformation products of IX using a Yeast Estrogenic Screen, according to De Boever et al. (2001) Env. Health Perspectives 109, 691-697, based on Routledge & Sumpter (1996) Environ. Toxicol. Chem. 15, 241-248. In brief, Saccharomyces cerevisiae, was transformed with the human estrogen receptor (ERα) gene, together with expression plasmids containing responsive elements and the lacZ reporter gene (encoding the enzyme β-galactosidase). β-galactosidase activity is quantified at 540 nm by the conversion of the chromogenic substance chlorophenol red-β-D-galactopyranoside into chlorophenol red. The bioassay response is expressed as the absorbance at 540 nm divided by the optical density at 630 nm [(A540/A630)net]. The estrogenic activity of the samples was expressed as percentage equivalence to 10 nM estradiol (E2) which elicited a 100% response in the estrogen receptor bioassay. The bioassays were performed in 96-well plates in which 10 μL of the test compounds were tested and incubated with 240 μL of the genetically modified yeast (optical density of 0.25 at 610 nm). Serial dilutions of the test compounds were made in dimethylsulfoxide, which allowed generating dose-response curves for doses (ordinate) versus activity (abscissa). The data were fitted by a 4 parametric logistic model using the Marquardt-Levenberg algorithm (Sigmaplot 4.0, SPSS Inc., Chicago, Ill., USA) (De Boever et al. (2001) Env. Health Perspectives 109, 691-697).
To further test this transformation, cultures A-D (10% (v/v)) were incubated for 8 days in Brain Heart Infusion broth (with 0.5 g/l cystein-HCl) with either X or IX at a concentration of 25 mg/l under anaerobic conditions and conversion products were detected by HPLC (Table 1). […] However, in culture C almost 40% of 8-PN was recovered, which explains the increase in estrogenic properties of culture C.

E. limosum = test: Selection of 8-PN producing E. limosum by repeated incubations with IX; type: in vitro ADME, Eubacterium limosum; details: 6 parallel incubations, 25 mg/l IX, 8 days
Procedure: Because of the capacity of E. limosum to transform IX into 8-PN, a selection procedure was performed to obtain a strain, capable to quantitatively produce 8-PN. The selection procedure consisted of 6 parallel incubations of E. limosum [cultures from single colonies] with 25 mg/l IX and incubation for 8 days. Next, the culture which produced the highest amount of 8-PN was selected and used as inoculum for the next round of 6 parallel incubations (Table 3). […] This means that, after only three rounds, a strain was selected which converted almost all IX (high mean) and was also stable (low standard deviation).

[1] = target: T1, human estrogen receptor (ERα) (Homo sapiens, UniProt P03372); test: Yeast Estrogenic Screen of extracts of fecal culture incubations with IX; type: cell-based
T1 construct: expressed in transfected cells; host or cells: Saccharomyces cerevisiae
T1 sequence (P03372 1-595): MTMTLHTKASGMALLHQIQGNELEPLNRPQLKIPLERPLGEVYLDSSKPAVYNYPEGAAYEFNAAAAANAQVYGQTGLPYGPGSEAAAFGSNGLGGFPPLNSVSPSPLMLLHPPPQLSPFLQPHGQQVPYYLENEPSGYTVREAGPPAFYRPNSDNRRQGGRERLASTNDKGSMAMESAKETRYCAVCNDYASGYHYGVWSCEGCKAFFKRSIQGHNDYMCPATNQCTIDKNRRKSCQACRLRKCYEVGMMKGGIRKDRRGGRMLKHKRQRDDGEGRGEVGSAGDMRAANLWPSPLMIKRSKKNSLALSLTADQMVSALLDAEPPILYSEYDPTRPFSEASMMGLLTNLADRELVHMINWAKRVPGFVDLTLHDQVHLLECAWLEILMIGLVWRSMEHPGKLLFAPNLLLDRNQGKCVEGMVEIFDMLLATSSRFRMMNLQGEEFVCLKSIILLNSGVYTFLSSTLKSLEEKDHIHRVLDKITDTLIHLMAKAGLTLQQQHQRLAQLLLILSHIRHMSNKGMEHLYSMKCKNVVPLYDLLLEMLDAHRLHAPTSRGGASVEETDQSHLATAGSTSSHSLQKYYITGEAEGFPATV
Procedure: as §1, with “The bioassays were performed in 96-well plates in which 10 μL of the test compounds were tested and incubated with 240 μL of the genetically modified yeast (optical density of 0.25 at 610 nm). Serial dilutions of the test compounds were made in dimethylsulfoxide, which allowed generating dose-response curves for doses (ordinate) versus activity (abscissa). The data were fitted by a 4 parametric logistic model using the Marquardt-Levenberg algorithm (Sigmaplot 4.0, SPSS Inc., Chicago, Ill., USA) (De Boever et al. (2001) Env. Health Perspectives 109, 691-697).” left out

[2] = system: fecal culture B supplemented with E. limosum; test: Supplementation of selected E. limosum strain to non-converting fecal culture B incubated with IX; type: in vitro ADME, human
Procedure: The most efficient E. limosum strain, obtained from the selection experiment in example 2, was supplemented to the originally non-converting culture B of example 1, to examine the capacity of this strain to initiate the production of 8-PN in the complex environment of a fecal suspension. The strain was added to the culture in proportions ranging from 0% up to 100% (v/v). This mixture was incubated with 10% (v/v) of 25 mg/L IX for a period of seven days in Brain Heart Infusion broth (with 0.5 g/l cystein-HCl) under anaerobic conditions. The concentration of 8-PN was monitored every two days (FIG. 7).

[3] = Incubation of IX and 8-PN with Eubacterium limosum for 13 days; type: in vitro ADME; details: Eubacterium limosum, Eubacterium limosum ATCC 8486 culture; E. limosum, 25 mg/l substrate, 13 days anaerobic; average (stdev) molar percentage
Procedure: Eubacterium limosum ATCC 8486 and Peptostreptococcus productus ATCC 27340 were obtained from the German Collection of Microorganisms and Cell Cultures (DSMZ, Braunschweig, Germany). E. limosum was incubated for 13 days in Brain Heart Infusion broth (with 0.5 g/l cystein-HCl) with 25 mg/l of IX and 8-PN under anaerobic conditions (Table 2). This strain was able to convert IX into 8-PN. […] This feature is clearly different from the metabolic pathway as observed in liver microsomes wherein 8-PN is extensively further metabolised [Nikolic et al. (2005) J. of Mass Spectrom. 40, 289-299; Nikolic et al. (2004) Drug Metabolism and Disposition 32, 272-279].

## COc1cc(O)c(CC=C(C)C)c2c1C(=O)C[C@@H](c1ccc(O)cc1)O2 [IX, 5-O-methyl-8-prenylnaringenin]
Human fecal cultures
  Transformation of IX: recalcitrant to transformation
E. limosum; selection round I
  Molar % IX to 8-PN conversion, Highest: 46.5%
  Molar % IX to 8-PN conversion, Lowest: 2% and 2.1%
  Molar % IX to 8-PN conversion, Mean (stdev): 22.5% and 22.5 (19.3) %
E. limosum; selection round II
  Molar % IX to 8-PN conversion, Highest: 79.4%
  Molar % IX to 8-PN conversion, Lowest: 24.3%
  Molar % IX to 8-PN conversion, Mean (stdev): 57.9 (19.6) %
E. limosum; selection round III
  Molar % IX to 8-PN conversion, Lowest: 82% and 82.1%
  Molar % IX to 8-PN conversion, Mean (stdev): 90.5% and 90.5 (6.9) %
[1]; fecal culture C incubated with 25 mg/l IX, after 8 days
  Estrogenic response of incubation extracts: strong increase in the estrogenic properties
[1]; fecal cultures A-D incubated with 25 mg/l IX, day 0
  Estrogenic response of incubation extracts: None of the incubations showed an estrogenic response
[2]; 1% supplementation of E. limosum, after one day
  Conversion of IX into 8-PN: half of the dosed IX was already transformed into 8-PN
[2]; equal amount of E. limosum culture and fecal sample (100% in FIG. 7)
  Conversion of IX into 8-PN: complete conversion of IX into 8-PN
[3]
  recovery at 13 days, 25 mg/l: 51.4%
